Starred links: 1 amine or outer side, 2 acyl side, 3 side chain; linkers in the order of their positions; H or OH if unused. Positions of bridges follow the written chain, without caps; N, C: chain ends. Non-standard residues stand in square brackets, D forms with d. Residues, ends and D or L forms follow the SMILES beside them. *: point of attachment. X1 = CC[C@H](C)[C@@H](N[*:1])[C@@H](O)CC(=O)O[C@H](C(=O)[C@H](C)C(=O)[*:2])C(C)C; NMeY = CN[C@@H](Cc1ccc(O)cc1)C(=O)O; dNMeL = CN[C@H](CC(C)C)C(=O)O; Pyruvoyl = CC(=O)C(=O)*

The text below walks through data of patent publication US7507766B2, “Treatment of cancers” (Pharma Mar, S.A., priority 2000, dated 2009).

The target of data set [1] is T1, ornithine decarboxylase (Homo sapiens, UniProt P11926).
T1 construct: endogenous in cells; host or cells: CT-1, CT-2 and HT-29 colon carcinoma cell lines
T1 sequence (P11926 1-461): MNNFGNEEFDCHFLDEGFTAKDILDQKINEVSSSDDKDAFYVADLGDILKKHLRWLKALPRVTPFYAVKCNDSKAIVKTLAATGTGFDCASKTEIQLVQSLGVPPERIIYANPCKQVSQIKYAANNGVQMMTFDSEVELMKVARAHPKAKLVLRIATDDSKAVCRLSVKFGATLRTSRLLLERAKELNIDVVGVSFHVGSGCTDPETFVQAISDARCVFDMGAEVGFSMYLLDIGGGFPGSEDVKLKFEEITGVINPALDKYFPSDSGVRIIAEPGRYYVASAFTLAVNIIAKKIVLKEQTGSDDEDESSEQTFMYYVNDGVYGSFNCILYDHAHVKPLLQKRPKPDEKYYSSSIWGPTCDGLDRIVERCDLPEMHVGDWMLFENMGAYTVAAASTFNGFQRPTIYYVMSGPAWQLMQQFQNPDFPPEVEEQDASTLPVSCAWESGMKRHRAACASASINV
As to conditions: all three cell lines; cited from earlier work.

Data set [2] relates to gene (FLT1) encoding the receptor of the Vascular Endothelial Growth Factor (VEGF). The data set is described as follows: expression of the gene FLT1. It counts as cell-based.
The subject of data set [3] is MDA-MB231. As to conditions: aplidine; cited from earlier work.
Data set [4] concerns cell cycle. The following applies: cited from earlier work.
Data set [5] relates to CT-2. The following applies: cited from earlier work.

Take `CC[C@H](C)[C@H]1NC(=O)[C@@H](NC(=O)[C@@H](CC(C)C)N(C)C(=O)[C@@H]2CCCN2C(=O)C(C)=O)[C@@H](C)OC(=O)[C@H](Cc2ccc(OC)cc2)N(C)C(=O)[C@@H]2CCCN2C(=O)[C@H](CC(C)C)NC(=O)[C@@H](C)C(=O)[C@H](C(C)C)OC(=O)C[C@@H]1O` [aplidine] (Pyruvoyl-P[dNMeL]T[X1]LP[NMeY](Me); ester 3-C): the ornithine decarboxylase activity result in data set [1] was “decreased ornithine decarboxylase activity”. In addition, in data set [2], the “expression of FLT1 gene” value is “inhibits expression”. The growth inhibition in data set [3] is listed as 17%. For the same compound, in data set [4], the cell cycle perturbations entry is listed as “did not induce any apparent cell cycle pertubations”. In addition, the cytotoxic activity result in data set [5] is “dose-dependent cytotoxic activity”. For the same compound, the “relative sensitivity among CT-1, CT-2, HT-29” value in data set [5] (most proliferative line) is “most sensitive”.
